Legend:
[1] = Compound induced cellular toxicity in HepG2 cells (ATPlite 1 Step); assay type: cell-based; settings: human, three days, 50% reduction of total ATP levels vs no drug controls
Experimental: At day 3, post seeding cells are treated with ATPlite 1 Step according to the manufacturer's instructions.

[2] = system: HBV (2.2.15 cells); assay: Antiviral activity in 2.2.15 cells: reduction of viral product accumulation (qPCR of lysates, HBsAg or HBeAg ELISA); assay type: cell-based, hepatitis B virus (HBV); settings: Hepatitis B virus, 120 h, day 5 post treatment, 50% reduction of viral product accumulation in lysates or supernatants vs no drug controls, readout (qPCR, HBsAg, HBeAg) not specified
Method in brief: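 HBV-producing 2.2.15 cells, 35,000/well, treated with 5-fold serial compound dilutions at 0.5% final DMSO for 5 days. Lysate HBV DNA by qPCR or supernatant HBsAg/HBeAg by ELISA; EC50 is 50% reduction versus no-drug control, binned A<0.1 μM, B 0.1-1 μM, C>1 μM.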

Structure (SMILES)	CC50 at 3 days [1]	EC50 [2]
CC(C)(C)[C@@H]1Cc2c(cc(-c3ccccc3F)c3c2CCO3)-c2cc(=O)c(C(=O)O)cn21 [Example 66, (S)-5-(tert-butyl)-12-(2-fluorophenyl)-9-oxo-2,3,4,9-tetrahydro-5H-furo[3,2-f]pyrido[2,1-a]isoquinoline-8-carboxylic Acid]	< 10 µM	< 0.1 µM
COCCCOc1cc2c(cc1-c1cc3ccccc3o1)-c1cc(=O)c(C(=O)O)cn1[C@H](C(C)(C)C)C2 [Example 9, (S)-10-(benzofuran-2-yl)-6-(tert-butyl)-9-(3-methoxypropoxy)-2-oxo-6,7-dihydro-2H-pyrido[2,1-a]isoquinoline-3-carboxylic Acid]	> 25 µM	< 0.1 µM
